{"source": "patent US9333159B2", "about": "“Topical DNA repair composition” (PHOTOMEDEX, INC., priority 2011, dated 2016)", "origin": "cited, not measured here", "details": "known super antioxidants; USDA database value prevails where different"}
{"smiles": "C[N+](C)(C)[C@@H](Cc1c[nH]c(=S)[nH]1)C(=O)[O-]", "note": "[ergothioneine]", "values": [{"measurement": "ORAC score", "value": "61,000"}]}
